Laboratory results taken from BindingDB's records for doi:10.1021/jm400938g (State Key Laboratory of Bioreactor Engineering, 2013).

Tests used:
[1] = biological target: Dihydroorotate dehydrogenase (quinone), mitochondrial (Homo sapiens, UniProt Q02127); test: Inhibition of N-terminal His10-tagged human DHODH (Met30 to Arg396) expressed in Escherichia coli BL21 (DE3) using dihydroorotate as substrate measured every 30 secs for 6 mins by DCIP dye-based assay
[2] = biological target: T1, Dihydroorotate dehydrogenase (quinone), mitochondrial (Plasmodium falciparum, UniProt Q54A96); test: Inhibition of Plasmodium falciparum DHODH (Phe158 to Ser569) expressed in Escherichia coli BL21 using dihydroorotate as substrate measured every 30 secs for 6 mins by DCIP dye-based assay
T1 sequence (Q54A96 whole entry): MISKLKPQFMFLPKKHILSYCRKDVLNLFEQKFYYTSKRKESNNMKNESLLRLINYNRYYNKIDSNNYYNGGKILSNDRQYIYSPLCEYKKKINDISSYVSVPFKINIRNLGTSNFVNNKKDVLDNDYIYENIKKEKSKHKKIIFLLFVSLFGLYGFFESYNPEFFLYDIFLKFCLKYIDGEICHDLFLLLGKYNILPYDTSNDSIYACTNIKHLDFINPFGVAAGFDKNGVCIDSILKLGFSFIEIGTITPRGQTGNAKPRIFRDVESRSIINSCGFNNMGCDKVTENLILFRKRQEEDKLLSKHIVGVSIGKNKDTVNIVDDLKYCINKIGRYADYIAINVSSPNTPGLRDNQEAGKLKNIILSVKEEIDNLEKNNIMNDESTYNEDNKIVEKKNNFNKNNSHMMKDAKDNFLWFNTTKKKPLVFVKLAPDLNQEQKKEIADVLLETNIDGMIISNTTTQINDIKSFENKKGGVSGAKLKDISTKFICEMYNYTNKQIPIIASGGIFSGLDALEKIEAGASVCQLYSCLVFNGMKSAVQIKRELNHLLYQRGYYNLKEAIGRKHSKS

Chain of Dihydroorotate dehydrogenase (quinone), mitochondrial (Homo sapiens, UniProt Q02127) (Q02127 whole entry): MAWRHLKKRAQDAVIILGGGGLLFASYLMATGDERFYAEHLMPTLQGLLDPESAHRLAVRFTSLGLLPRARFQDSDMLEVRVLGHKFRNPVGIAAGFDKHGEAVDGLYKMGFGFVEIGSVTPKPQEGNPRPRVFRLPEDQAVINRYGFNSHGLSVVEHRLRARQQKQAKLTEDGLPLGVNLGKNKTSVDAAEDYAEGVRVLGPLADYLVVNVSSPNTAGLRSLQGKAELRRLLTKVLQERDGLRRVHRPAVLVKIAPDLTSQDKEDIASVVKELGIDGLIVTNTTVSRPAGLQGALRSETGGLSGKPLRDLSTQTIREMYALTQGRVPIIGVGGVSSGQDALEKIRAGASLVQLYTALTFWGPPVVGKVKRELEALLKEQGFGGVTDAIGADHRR

| Structure (SMILES) | IC50 [1] | IC50 [2] |
| --- | --- | --- |
| CCCNC(=O)c1c(O)csc1Nc1ccc2ccccc2c1 | > 50 µM | > 50 µM |
| Cc1ccc(Nc2scc(O)c2C(=O)O)cc1C | > 50 µM | > 50 µM |
| CCOC(=O)c1c(O)csc1Nc1ccccc1 | > 50 µM | > 50 µM |
| Cc1ccc(Nc2scc(O)c2C(N)=O)cc1C | > 50 µM | > 50 µM |
| CCCCNC(=O)c1c(O)csc1Nc1ccc2ccccc2c1 | > 50 µM | > 50 µM |
| CCOC(=O)c1c(O)csc1Nc1ccc(Br)cc1C | > 50 µM | > 50 µM |
| O=C(NCC1CC1)c1c(O)csc1Nc1ccc2ccccc2c1 | > 50 µM | > 50 µM |
| CCOC(=O)c1c(O)csc1Nc1cccc(C(F)(F)F)c1 | > 50 µM | > 50 µM |
